Our source for the DC50 values is patent US20240343733A1, “COMPOUNDS FOR TARGETING DEGRADATION OF IRAK4 PROTEINS” (BIOGEN MA INC., priority 2021, published 2024).

What is called DC50 is the concentration giving 50% degradation. Low values mean degradation at low concentration, high ones degradation only at high concentration.

Bounds are passed on as bounds.

The target of this test is T1, IRAK4 (Homo sapiens, UniProt Q9NWZ3).
T1 construct: 293Tcells expressing HiBiT-tagged IRAK4 were then added into 384-well plates
T1 sequence (Q9NWZ3 1-460): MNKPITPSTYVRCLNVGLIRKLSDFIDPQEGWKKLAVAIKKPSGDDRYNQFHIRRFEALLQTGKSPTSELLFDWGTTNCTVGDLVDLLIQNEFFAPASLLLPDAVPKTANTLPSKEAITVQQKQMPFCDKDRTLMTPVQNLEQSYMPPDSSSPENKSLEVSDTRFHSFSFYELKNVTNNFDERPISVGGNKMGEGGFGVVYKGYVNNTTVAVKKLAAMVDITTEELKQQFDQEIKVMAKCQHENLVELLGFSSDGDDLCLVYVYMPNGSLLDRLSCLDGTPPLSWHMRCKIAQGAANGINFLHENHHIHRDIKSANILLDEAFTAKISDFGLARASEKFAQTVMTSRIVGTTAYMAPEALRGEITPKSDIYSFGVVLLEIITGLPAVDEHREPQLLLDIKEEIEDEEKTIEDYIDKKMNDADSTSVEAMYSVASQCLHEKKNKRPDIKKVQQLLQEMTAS
Description: IRAK4 Degradation Assay, HiBiT Method. To be noted: 293T cells expressing HiBiT-tagged IRAK4, 6 hours. In kind it is cell-based. How it is done: Assay 1. IRAK4 Degradation Assay, HiBiT Method
Selected compounds were tested in an IRAK4 degradation assay using the HiBiT Method.
Phenol red-free Dulbecco's modified Eagle medium (DMEM) and fetal bovine serum (FBS) were purchased from Gibco (Grand Island, NY, USA). The Nano-Glo® HiBiT Lytic Assay System was purchased from Promega (Madison, WI, USA). Cell culture flasks and 384-well microplates were acquired from VWR (Radnor, PA, USA). The 293Tcell line was engineered by knocking-in a HiBiT fusion tag into the C-terminal of the IRAK4 gene in 293T cells (Synthego, Redwood City, CA, USA).
IRAK4 degradation was measured via the quantification of luminescent signals using the Nano-Glo® HiBiT Lytic Assay kit. Test compounds were added to 384-well plates in duplicate using an 11-point half-log dilution series, with the highest dose set at […]. 293Tcells expressing HiBiT-tagged IRAK4 were then added into 384-well plates at a cell density of 10,000 cells per well. The plates were kept at 37° C. with 5% CO2 for 6 hours. Cells that were treated only with DMSO served as the negative control; wells that contained only assay media served as the background control. After the 6-hour incubation, Nano-Glo® HiBiT Lytic Assay reagents were added to the cells. Luminescence was acquired using an EnVision™ Multilabel Reader (PerkinElmer, Santa Clara, CA, USA).
In general terms: HiBiT is a short tag that completes a luciferase, so light tracks the accessible tagged protein.
`CC(C)Oc1cc2nc([C@H]3CC[C@H](CN4CCC(c5cc6c(cc5F)c(N5CCC(=O)NC5=O)nn6C)C(F)(F)C4)CC3)cn2cc1C(=O)Nc1cccn([C@H]2C[C@H]2F)c1=O` (some centres unmarked) [Example 172, 2-((1r, 4S)-4-((4-(3-(2,4-dioxotetrahydropyrimidin-1 (2H)-yl)-5-fluoro-1-methyl-1H-indazol-6-yl)-3,3-difluoropiperidin-1-yl)methyl)cyclohexyl)-N-(1-((1 S, 2R)-2-fluorocyclopropyl)-2-oxo-1,2-dihydropyridin-3-yl)-7-isopropoxyimidazo[1,2-a]pyridine-6-carboxamide]: the DC50 was in the range of 10 to 100 nM.

For the molecule `CC(C)Oc1cc2nn(C3CCN(C(=O)CC4CCN(c5ccc(C6CCC(=O)NC6=O)cn5)CC4)CC3)cc2cc1C(=O)Nc1cccn([C@H]2C[C@H]2F)c1=O` (stereo partly drawn) [Example 149, 2-(1-(2-(1-(5-(2,6-dioxopiperidin-3-yl)pyridin-2-yl)piperidin-4-yl)acetyl)piperidin-4-yl)-N-(1-((1S,2R)-2-fluorocyclopropyl)-2-oxo-1,2-dihydropyridin-3-yl)-6-isopropoxy-2H-indazole-5-carboxamide], the DC50 is less than 10 nM.

Take `CC(C)Oc1cc2nc([C@H]3CC[C@H](CN4CCC(c5ccc6c(c5)n(C)c(=O)n6C5CCC(=O)NC5=O)CC4)CC3)cn2cc1C(=O)Nc1cccc(C(F)(F)F)n1` (some centres unmarked) [Example 5, 2-[4-[[4-[1-(2,6-dioxo-3-piperidyl)-3-methyl-2-oxo-benzimidazol-5-yl]-1-piperidyl]methyl]cyclohexyl]-7-isopropoxy-N-[6-(trifluoromethyl)-2-pyridyl]imidazo[1,2-a]pyridine-6-carboxamide]: the DC50 fell in the range of 500 to 1000 nM.

`CC(C)Oc1cc2nn([C@H]3CC[C@H](CN4CC[C@H](c5cc6c(cc5F)c(N5CCC(=O)NC5=O)nn6C)[C@H](O)C4)CC3)cc2cc1C(=O)Nc1cccn([C@H]2C[C@H]2F)c1=O` [Example 184, 2-((1S,4S)-4-(((3S,4R)-4-(3-(2,4-dioxotetrahydropyrimidin-1(2H)-yl)-5-fluoro-1-methyl-1H-indazol-6-yl)-3-hydroxypiperidin-1-yl)methyl)cyclohexyl)-N-(1-((1S,2R)-2-fluorocyclopropyl)-2-oxo-1,2-dihydropyridin-3-yl)-6-isopropoxy-2H-indazole-5-carboxamide]: the DC50 was less than 10 nM.

Regarding `CC(C)Oc1cc2nn([C@H]3CC[C@H](CN4CC5(C4)CN(c4ncc(C6CCC(=O)NC6=O)cc4F)C5)CC3)cc2cc1C(=O)Nc1cccn([C@H]2C[C@H]2F)c1=O` (stereo partly drawn) [Example 126, 2-((1r,4S)-4-((6-(5-(2,6-dioxopiperidin-3-yl)-3-fluoropyridin-2-yl)-2,6-diazaspiro[3.3]heptan-2-yl)methyl)cyclohexyl)-N-(1-((1S,2R)-2-fluorocyclopropyl)-2-oxo-1,2-dihydropyridin-3-yl)-6-isopropoxy-2H-indazole-5-carboxamide], the 50% degradation concentration (DC50) is less than 10 nM.

Turning to `CC(C)Oc1cc2nn([C@H]3CC[C@H](CN4CCC(c5cc6c(cc5F)c(N5CCC(=O)NC5=O)nn6C)CC4)CC3)cc2cc1C(=O)Nc1cccn([C@H]2C[C@H]2F)c1=O` [Example 130, 2-((1r,4S)-4-((4-(3-(2,4-dioxotetrahydropyrimidin-1(2H)-yl)-5-fluoro-1-methyl-1H-indazol-6-yl)piperidin-1-yl)methyl)cyclohexyl)-N-(1-((1S,2R)-2-fluorocyclopropyl)-2-oxo-1,2-dihydropyridin-3-yl)-6-isopropoxy-2H-indazole-5-carboxamide], the DC50 is less than 10 nM.

As for `CC(C)Oc1cc2nc(C3CCN(C(=O)CN4CCC(c5cnc(NC6CCC(=O)NC6=O)nc5)CC4)CC3)cn2cc1C(=O)Nc1cccc(C(F)F)n1` (centres unmarked) [Example 85, N-[6-(difluoromethyl)-2-pyridyl]-2-[1-[2-[4-[2-[(2,6-dioxo-3-piperidyl)amino]pyrimidin-5-yl]-1-piperidyl]acetyl]-4-piperidyl]-7-isopropoxy-imidazo[1,2-a]pyridine-6-carboxamide], the DC50 lay in the range of 10 to 100 nM.

In turn, `CC(C)Oc1cc2nc([C@H]3CC[C@H](CN(C)C4CCN(c5cccc6c5n(C)c(=O)n6C5CCC(=O)NC5=O)CC4)CC3)cn2cc1C(=O)Nc1cccc(C(F)F)n1` (some centres unmarked) [Example 21, N-[6-(difluoromethyl)-2-pyridyl]-2-[4-[[[1-[1-(2,6-dioxo-3-piperidyl)-3-methyl-2-oxo-benzimidazol-4-yl]-4-piperidyl]-methyl-amino]methyl]cyclohexyl]-7-isopropoxy-imidazo[1,2-a]pyridine-6-carboxamide] registered a 50% degradation concentration (DC50) of 10 to 100 nM.

As for `CC(C)Oc1cc2nn([C@H]3CC[C@H](CN4CC5(CCN(c6ncc(C7CCC(=O)NC7=O)cc6F)CC5)C4)CC3)cc2cc1C(=O)Nc1cnn2cccnc12` (some centres unmarked) [Example 117, 2-((1r,4r)-4-((7-(5-(2,6-dioxopiperidin-3-yl)-3-fluoropyridin-2-yl)-2,7-diazaspiro[3.5]nonan-2-yl)methyl)cyclohexyl)-6-isopropoxy-N-(pyrazolo[1,5-a]pyrimidin-3-yl)-2H-indazole-5-carboxamide], the DC50 was less than 10 nM.

On to `CC(C)Oc1cc2nn([C@H]3CC[C@H](CN4CCC(c5ccc(OC6CCC(=O)NC6=O)cc5)CC4)CC3)cc2cc1C(=O)Nc1cccn([C@H]2C[C@H]2F)c1=O` (stereo partly drawn) [Example 141, 2-((1r,4S)-4-((4-(4-((2,6-dioxopiperidin-3-yl)oxy)phenyl)piperidin-1-yl)methyl)cyclohexyl)-N-(1-((1S,2R)-2-fluorocyclopropyl)-2-oxo-1,2-dihydropyridin-3-yl)-6-isopropoxy-2H-indazole-5-carboxamide], for which the DC50 was less than 10 nM.

As to `CC(C)Oc1cc2nn([C@H]3CC[C@H](CN4CCOC[C@@H]4Cc4ccc(OC5CCC(=O)NC5=O)cc4)CC3)cc2cc1C(=O)Nc1cnn2cccnc12` (stereo partly drawn) [Example 131, 2-((1R,4r)-4-(((3R)-3-(4-((2,6-dioxopiperidin-3-yl)oxy)benzyl)morpholino)methyl)cyclohexyl)-6-isopropoxy-N-(pyrazolo[1,5-a]pyrimidin-3-yl)-2H-indazole-5-carboxamide], the DC50 lay within 10 to 100 nM.

`CC(C)Oc1cc2nc([C@H]3CC[C@H](CN4CCC(c5ccc(N6CCC(=O)NC6=O)cc5)CC4)CC3)cn2cc1C(=O)Nc1cccc(C(F)F)n1` [Example 39, N-[6-(difluoromethyl)-2-pyridyl]-2-[4-[[4-[4-(2,4-dioxohexahydropyrimidin-1-yl)phenyl]-1-piperidyl]methyl]cyclohexyl]-7-isopropoxy-imidazo[1,2-a]pyridine-6-carboxamide] showed a DC50 of 10 to 100 nM.

For the molecule `CC(C)Oc1cc2nc(C3CCN(C(=O)CN4CCC(c5cc(F)c(C6CCC(=O)NC6=O)cc5F)CC4)CC3)cn2cc1C(=O)Nc1cccc(C(F)F)n1` (centres unmarked) [Example 76, N-[6-(difluoromethyl)-2-pyridyl]-2-[1-[2-[4-[4-(2,6-dioxo-3-piperidyl)-2,5-difluoro-phenyl]-1-piperidyl]acetyl]-4-piperidyl]-7-isopropoxy-imidazo[1,2-a]pyridine-6-carboxamide], the DC50 was in the range of 10 to 100 nM.

`CC(C)Oc1cc2nc(C3CCN(C(=O)CC4(O)CCN(c5c(F)cc(N[C@H]6CCC(=O)NC6=O)cc5Cl)CC4)CC3)cn2cc1C(=O)Nc1cccc(C(F)F)n1` [Example 82, 2-[1-[2-[1-[2-chloro-4-[[(3S)-2,6-dioxo-3-piperidyl]amino]-6-fluoro-phenyl]-4-hydroxy-4-piperidyl]acetyl]-4-piperidyl]-N-[6-(difluoromethyl)-2-pyridyl]-7-isopropoxy-imidazo[1,2-a]pyridine-6-carboxamide] displayed a DC50 of 10 to 100 nM.
